We go through 33 compounds from US5023269A, “3-aryloxy-3-substituted propanamines” (Eli Lilly and Company, priority 1990, dated 1991).

Where a name gives a salt, the structure may show the parent alone.

Test [1] concerns norepinephrine (NE) uptake. Kind of test: Inhibition of norepinephrine uptake in vitro: synaptosomal uptake of 14C-l-norepinephrine in rat cortical synaptosomes. The test is classed as biochemical, rat (male Sprague-Dawley). The following applies: 100 nM 14C-NE, 37° C., 5 min. As to the method:
(§1) This general procedure is set forth by Wong et al., in Drug Development Research 6:397-403 (1985).
(§2) Male Sprague-Dawley rats (110-150 g) from Harlan Industries (Cumberland, IN) were fed a Purina Chow ad libitum for at least 3 days before being used in the studies. Rats were killed by decapitation. Whole brains were removed and dissected. Cerebral cortex was homogenized in 9 volumes of a medium containing 0.32 M sucrose and 10 mM glucose. Crude synaptosomal preparations were isolated after differential centrifugation at 1,000 g for 10 min. and 17,000 g for 28 min. The final pellets were suspended in the same medium and kept in ice until use within the same day.
(§3) Synaptosomal uptake of ^3 H-serotonin(^3 H-5hydroxytryptamine, ^3 H-5HT) and ^14 C-l-norepinephrine (^14 C-NE) was determined as follows. Cortical synaptosomes (equivalent to 1 mg of protein) were incubated at 37° C. for 5 min in 1 ml of Krebs-bicarbonate medium containing also 10 mM glucose, 0.1 mM iproniazid, 1 mM ascorbic acid, 0.17 mM EDTA, 50 nM ^3 H-5HT and 100 nM ^14 C-NE The reaction mixture was immediately diluted with 2 ml of ice-chilled Krebs-bicarbonate buffer and filtered under vacuum with a cell harvester (Brandel, Gaithersburg, MD). Filters were rinsed twice with approximately 5 ml of ice-chilled 0.9% saline and were transferred to a counting vial containing 10 ml of scintillation fluid (PCS, Amersham, Arlington Heights, IL). Radioactivity was measured by a liquid scintillation spectrophotometer. Accumulation of ^3 H-5HT and ^14 C-NE at 4° C. represented the background and was subtracted from all samples.

A further test has as its system serotonin (5HT) uptake. Kind of test: Inhibition of 5HT uptake in vitro: synaptosomal uptake of 3H-serotonin in rat cortical synaptosomes. Format: biochemical, rat (male Sprague-Dawley). The following applies: 50 nM 3H-5HT, 37° C., 5 min. The method, then:
as §1, §2, §3

Consider `CNCCC(Oc1cccc2ccccc12)C1CCCCC1` (centres unmarked) [Example 15, N-Methyl-3-(1-naphthalenyloxy)-3-cyclohexylpropanamine oxalate], for which the IC50 in test [1] came out at 90 nM; in the test on serotonin (5HT) uptake, 125 nM.
The like results for `CNCCC(Oc1ccc(C(F)(F)F)cc1)C1CCCCC1` (centres unmarked) [Example 34, N-Methyl-3-[4-(trifluoromethyl)phenoxy]-3(cyclohexyl)propanamine oxalate] were, in that order, 285 nM and 79 nM.
As for `Cc1ccsc1C(CCN(C)C)Oc1cccc2ccccc12` (centres unmarked) [Example 4, N,N-Dimethyl-3-(1-naphthalenyloxy)-3-(3-methyl-2-thienyl)propanamine oxalate], the “percent inhibition at 1000 nM, NE (number in parentheses)” value (from here on “percent inhibition at 1000 nM, NE”) in test [1] was found to be 41%. The IC50 in the test with serotonin (5HT) uptake is 76 nM.
As for `CNCCC(Oc1cccc2ccccc12)c1ccco1` (centres unmarked) [Example 31, N-Methyl-3-(1-naphthalenyloxy)-3-(2-furanyl)propanamine oxalate], the values for the IC50 (in test [1]; with serotonin (5HT) uptake) were 22.7 nM and 20 nM, respectively.
For the compound `CNCCC(Oc1cccc2ccccc12)c1cccs1` (centres unmarked) [Example 2, N-Methyl-3-(1-naphthalenyloxy)-3-(2-thienyl)propanamine oxalate], the IC50 in the test with serotonin (5HT) uptake amounted to […].
With `CNCCC(Oc1ccc(Cl)c2ccccc12)c1cccs1` (centres unmarked) [Example 11, N-Methyl-3-(4-chloro-1-naphthalenyloxy)-3-(2-thienyl)propanamine oxalate], the IC50 in test [1] stood at 77 nM; in the test on serotonin (5HT) uptake it was 49 nM.
Turning to `Cc1ccc(OC(CCN(C)C)c2cccs2)c2ccccc12` (centres unmarked) [Example 12, N,N-Dimethyl-3-(4-methyl-1-naphthalenyloxy)-3-(2-thienyl)propanamine oxalate], the “percent inhibition at 1000 nM, NE” value in test [1] was determined as 40%. In the test with serotonin (5HT) uptake, this compound yielded an IC50 of 58 nM.
`CN(C)CCC(Oc1cccc2ccccc12)c1ccc(Cl)s1` (centres unmarked) [Example 5, N,N-Dimethyl-3-(1-naphthalenyloxy)-3-(5-chloro-2-thienyl)propanamine oxalate]: the results for the IC50 (in test [1]; in the test on serotonin (5HT) uptake) were 725 nM and 62 nM, respectively.
On to `CNCCC(Oc1ccc(C(F)(F)F)c2ccccc12)c1cccs1` (centres unmarked) [Example 7, N-Methyl-3-[4-(trifluoromethyl)-1-naphthalenyloxy]-3-(2-thienyl)propanamineoxalate], for which, in test [1], the “percent inhibition at 1000 nM, NE” value was determined as 46%. Besides, the IC50 in the test with serotonin (5HT) uptake is 95 nM.
In the case of `CN(C)CCC(Oc1ccc(C(F)(F)F)cc1)c1ccco1` (centres unmarked) [Example 17, N,N-Dimethyl-3-[4-(trifluoromethyl)phenoxy]-3-(2-furanyl)propanamine oxalate], in test [1] (oxalate), the “percent inhibition at 1000 nM, NE” value stood at 5%. Inhibition with serotonin (5HT) uptake (oxalate) was half-maximal at 210 nM (IC50).
Consider `Cc1ccc(OC(CCN(C)C)c2cccs2)cc1` (centres unmarked) [Example 24, N,N-Dimethyl-3-(4-methylphenoxy)-3-(2-thienyl)propanamine oxalate], for which the IC50 in test [1] is 430 nM; in the test on serotonin (5HT) uptake it was 125 nM.
Turning to `CN(C)CCC(Oc1ccc(C(F)(F)F)cc1)c1ccsc1` (centres unmarked) [Example 19, N,N-Dimethyl-3-[4-(trifluoromethyl)phenoxy]-3-(3-thienyl)propanamine oxalate], the “percent inhibition at 1000 nM, NE” value in test [1] was 17%. The compound further yielded an IC50 with serotonin (5HT) uptake of 125 nM.
`CNCCC(Oc1ccc(C(F)(F)F)cc1)c1ccco1` (centres unmarked) [Example 23, N-Methyl-3-[4-(trifluoromethyl)phenoxy]-3-(2-furanyl)propanamine oxalate]: the 50% inhibitory concentration (IC50) in test [1] amounted to 1100 nM; with serotonin (5HT) uptake, 54 nM.
For the compound `CN(C)CCC(Oc1ccc(C(F)(F)F)cc1)C1CCCCC1` (centres unmarked) [Example 35, N,N-Dimethyl-3-[4-(trifluoromethyl)phenoxy]-3-(cyclohexyl)propanamine oxalate], the “percent inhibition at 1000 nM, NE” value in test [1] stood at 21%. This compound showed an IC50 with serotonin (5HT) uptake of 260 nM.
The like results for `CN(C)CCC(Oc1cccc2ccccc12)C1CCCCC1` (centres unmarked) [Example 33, N,N-Dimethyl-3-(1-naphthalenyloxy)-3-(cyclohexyl)propanamine oxalate] were, in that order, 47% and 210 nM.
For the compound `CN(C)CCC(Oc1cccc2ccccc12)c1cccnc1` (centres unmarked) [Example 37, N,N-Dimethyl-3-(1-naphthalenyloxy)-3-(3-pyridyl)propanamine oxalate], the IC50 (in test [1]; in the test on serotonin (5HT) uptake) was 315 nM in each case.
On to `CN(C)CCC(Oc1ccc(Cl)cc1)c1cccs1` (centres unmarked) [Example 25, N,N-Dimethyl-3-(4-chlorophenoxy)-3-(2-thienyl)propanamine oxalate], for which the IC50 in test [1] is 820 nM; in the test on serotonin (5HT) uptake, 170 nM.
`CN(C)CCC(Oc1ccc(Cl)c2ccccc12)c1cccs1` (centres unmarked) [Example 10, N,N-Dimethyl-3-(4-chloro-1-naphthalenyloxy)-3-(2-thienyl)propanamine oxalate]: the “percent inhibition at 1000 nM, NE” value in test [1] is recorded as 31%. The same compound returned an IC50 in the test with serotonin (5HT) uptake of 36 nM.
As to `CNCCC(Oc1cccc2ccccc12)c1cccs1` (single isomer, unassigned; (-)) [Example 39, (-)-N-methyl-3-(1-naphthalenyloxy)-3-(2-thienyl)propanamine oxalate], the IC50 in test [1] (oxalate) came to 34 nM; in the test with serotonin (5HT) uptake (oxalate) it was […].
`CNCCC(Oc1cccc2ccccc12)c1nccs1` (centres unmarked) [Example 16, N-Methyl-3-(1-naphthalenyloxy)-3-(2-thiazolyl)propanamine oxalate]: the IC50 in test [1] amounted to 205 nM; in the test on serotonin (5HT) uptake, 70 nM.
The matching figures for `CN(C)CCC(Oc1cccc2ccccc12)c1nccs1` (centres unmarked) [Example 32, N,N-Dimethyl-3-(1-naphthalenyloxy)-3-(2thiazolyl)propanamine oxalate]: 510 nM and 50 nM.
With `CNCCC(Oc1ccc(C(F)(F)F)cc1)c1cccs1` (centres unmarked) [Example 20, N-Methyl-3-[4-(trifluoromethyl)phenoxy-3-(2-thienyl)propanamine oxalate], the “percent inhibition at 1000 nM, NE” value in test [1] is recorded as 52%. The compound also displayed an IC50 with serotonin (5HT) uptake of 46 nM.
For `CNCCC(Oc1ccc(Cl)cc1)c1cccs1` (centres unmarked) [Example 27, N-Methyl-3-(4-chlorophenoxy)-3-(2-thienyl)propanamine oxalate], the IC50 was determined as 59 nM in test [1] and 91 nM in the test on serotonin (5HT) uptake.
The like results for `CNCCC(Oc1ccc(OC)cc1)c1cccs1` (centres unmarked) [Example 28, N-Methyl-3-(4-methoxyphenoxy)-3-(2-thienyl)propanamine oxalate] were, in that order, 260 nM and 50 nM.
As for `CN(C)CCC(Oc1cccc2ccccc12)c1ccco1` (centres unmarked) [Example 30, N,N-Dimethyl-3-(1-naphthalenyloxy)-3-(2furanyl)propanamine oxalate], the IC50 amounted to 30 nM in test [1] and 11 nM with serotonin (5HT) uptake.
The like results for `CN(C)CCC(Oc1cccc2ccccc12)c1ccsc1` (centres unmarked) [Example 8, N,N-Dimethyl-3-(1-naphthalenyloxy)-3-(3-thienyl)propanamine oxalate] were, in that order, 630 nM and 25 nM.
On to `CN(C)CCC(Oc1ccc(C(F)(F)F)cc1)c1ccco1` (centres unmarked) [Example 21, N,N-Dimethyl-3-[4-(trifluoromethyl)phenoxy]-3-(2-furanyl)propanamine], for which the “percent inhibition at 1000 nM, NE” value in test [1] is given as 14%. Moreover, in the test with serotonin (5HT) uptake, the IC50 is 140 nM.
The like results for `CNCCC(Oc1ccc(C(F)(F)F)cc1)c1ccsc1` (centres unmarked) [Example 22, N-Methyl-3-[4-(trifluoromethyl)phenoxy]-3-(3-thienyl)propanamine oxalate] were, in that order, 36% and 100 nM.
The like results for `CN(C)CCC(Oc1ccc(C(F)(F)F)cc1)c1cccs1` (centres unmarked) [Example 18, N,N-Dimethyl-3-[4-(trifluoromethyl)phenoxy]-3-(-22-thienyl)propanamine oxalate] were, in that order, 15% and 190 nM.
Regarding `CNCCC(Oc1ccc(C)cc1)c1cccs1` (centres unmarked) [Example 26, N-Methyl-3-(4-methylphenoxy)-3-(2-thienyl)propanamine oxalate], the results for the IC50 (in test [1]; in the test with serotonin (5HT) uptake) were 22 nM and 112 nM, respectively.
As to `COc1ccc(OC(CCN(C)C)c2cccs2)cc1` (centres unmarked) [Example 29, N,N-Dimethyl-3-(4-methoxyphenoxy)-3-(2thienyl)propanamine oxalate], the “percent inhibition at 1000 nM, NE” value in test [1] is 18%. For the same compound, the IC50 in the test with serotonin (5HT) uptake turned out to be 410 nM.
The like results for `CN(C)CCC(Oc1ccc(C(F)(F)F)c2ccccc12)c1cccs1` (centres unmarked) [Example 6, N,N-Dimethyl-3-[4-(trifluoromethyl)-1naphthalenyloxy]-3-(2-thienyl)propanamine oxalate] were, in that order, 9% and 114 nM.
Regarding `CN(C)CCC(Oc1cccc2ccccc12)c1cccs1` (centres unmarked) [Example 1, N,N-Dimethyl-3-(1-naphthalenyloxy)-3-(2-thienyl)propanamine oxalate], the IC50 in test [1] was 600 nM; with serotonin (5HT) uptake, 13 nM.
